Calls of active or inactive are those of the source. The rule behind the calls is not given here.

Among the data in ChEMBL document CHEMBL4819020, “Discovery of [1,2,4]triazolo[1,5-a]pyrimidines derivatives as potential anticancer agents” (Eur J Med Chem, 2021) are Activity and viability values, retold here.

The test system of series [1] is MGC-803. The series is described as follows: Cell cycle arrest in human MGC-803 cells assessed as accumulation of cells in S phase at 0.75 uM measured after 24 hrs by PI staining based flow cytometry assay (reference value: 18.03%). The format is functional. On the technique in general: A flow cytometer gives signals particle by particle.
For series [2], the system named is MGC-803. Nature of the series: Cell cycle arrest in human MGC-803 cells assessed as accumulation of cells in G2/M phase at 0.75 uM measured after 24 hrs by PI staining based flow cytometry assay (reference value: 33.35%). The format is functional.
Series [3] concerns MGC-803. Nature of the series: Cell cycle arrest in human MGC-803 cells assessed as accumulation of cells in G0/G1 phase at 1.5 uM measured after 24 hrs by PI staining based flow cytometry assay (reference value: 49.39%). The format is functional.
Series [4] deals with MGC-803. Nature of the series: Induction of apoptosis in human MGC-803 cells assessed by cell rounding at 0.75 to 3 uM measured after 48 hrs by Hoechst 33342 staining based microscopic method. The format is functional. Conditions: dose 0.75-3 µM.
The subject of series [5] is MGC-803. The series is described as follows: Induction of apoptosis in human MGC-803 cells assessed by formation of apoptotic bodies at 0.75 to 3 uM measured after 48 hrs by Hoechst 33342 staining based microscopic method. It is filed as functional, cell-based. Conditions: dose 0.75-3 µM.
For series [6], the system named is MGC-803. Nature of the series: Induction of apoptosis in human MGC-803 cells assessed as necrotic cells at 1.5 uM measured after 48 hrs by Annexin V-FITC/PI staining based flow cytometry method (reference value: 3.60 %). The format is functional.
Series [7] deals with MGC-803. Nature of the series: Induction of apoptosis in human MGC-803 cells assessed as viable cells at 3 uM measured after 48 hrs by Annexin V-FITC/PI staining based flow cytometry method (reference value: 92.3 %). The format is functional. Conditions: read-out: Activity.
In series [8] the test system is MGC-803. The series is described as follows: Induction of apoptosis in human MGC-803 cells assessed by increase in ROS production at 3 uM measured after 24 hrs by DCFH-DA staining based flow cytometry. The format is functional, cell-based.
Series [9] deals with MGC-803. The series is described as follows: Induction of apoptosis in human MGC-803 cells assessed as increase in cleaved caspase expression at 0.75 to 3 uM measured after 48 hrs by western blot assay. It is filed as functional, cell-based. Conditions: dose 0.75-3 µM. (Immunoblotting shows a protein as a band on a membrane.)
Series [10] concerns MGC-803. Nature of the series: Inhibition of cell migration in human MGC-803 cells measured after 48 hrs by wound healing assay. It is filed as functional, cell-based. Conditions: dose 0.25-1 µM.
The nature of series [11]: Toxicity in mouse assessed as effect on lung at 2 mg/kg, ig measured after 2 weeks by H and E staining based microscopic method. It is filed as organism-based. Conditions: in vivo, po, 336 h.
Series [12] can be described thus: Toxicity in mouse assessed as effect on kidney at 2 mg/kg, ig measured after 2 weeks by H and E staining based microscopic method. The format is organism-based. Conditions: in vivo, po, 336 h.

As for `Cc1cc(Nc2ccn(Cc3nc(C)c4ccccc4n3)n2)n2nc(SCc3ccc(Br)cc3)nc2n1`, the Activity with MGC-803 [1] is 22.83%; with MGC-803 [2] it was 19.3%; with MGC-803 [3], 57.78%; with MGC-803 [4] it was “Dose-Dependent Effect”; with MGC-803 [5] it was “Dose-Dependent Effect”; in the series with MGC-803 [6], 2.47%. Further, the Activity entry in the series on MGC-803 [9] is “Dose-Dependent Effect”; with MGC-803 [10] it was “Dose-Dependent Effect”; in series [11], “Non-Toxic”; in series [12], “Non-Toxic”. Moreover, in the series with MGC-803 [7], the viability at 3 µM worked out at 28%. Besides, in the series with MGC-803 [8], the outcome was Active.
